Assay results from patent US20120100361A1, “ANTISEPTIC COMPOSITION FOR ENGINEERING WOOD PRODUCTION, AND ENGINEERING WOOD” (SDS BIOTECH K.K., priority 2009, published 2012).

Tested on: not listed separately
Assay: Test for miscibility with a phenol resin glue
Assay type: physicochemical
Design: key to Phenol resin status after 60 minutes: ∘: No change; x: Obvious increase in the viscosity was seen and it seems impossible to apply the composition onto the veneer sheet
Conditions: 10% (w/w) solution added to phenol resin glue Deernol D-117 kneaded product; viscosity change visually observed for 60 minutes
Method: The following compounds, which are known to have wood preservative activity, are dissolved in methyl ethylene triglycol to reach a concentration of 10% (w/w) to thereby obtain a solution of each of the compounds.
1000 g of phenol resin-based glue Deernol D-117 (manufactured by Oshika Corporation), 70 g of wheat flour and 100 g of calcium carbonate were mixed and well kneaded. Each of the solutions of Example 1 and Comparative Example 1 to 25 was added to 17 g of the kneaded product and mixed well together. The viscosity change of the glue was visually observed for 60 minutes. […] Although a number of documents listed as the prior art documents and the like teach that quaternary ammonium compounds can be applied to the glue line treatment, it is clear that those compounds have a problem for practical use (Comparative Examples 3 and 4). On the other hand, it was confirmed that the other compounds including that of Example has no problem from the viewpoint of compatibility.

Row | Molecule | Phenol resin status after 60 minutes
1 | N#CC(CCc1ccc(Cl)cc1)(Cn1cncn1)c1ccccc1 (centres unmarked) [Comparative Example 9, fenbuconazole] | ∘
2 | CC1(C)CCC(=Cc2ccc(Cl)cc2)C1(O)Cn1cncn1 (centres unmarked) [Comparative Example 20, triticonazole] | ∘
3 | C[Si](C)(C)CC(O)(Cn1cncn1)c1ccc(F)cc1 (centres unmarked) [Comparative Example 8, simeconazole] | ∘
4 | N#Cc1c(Cl)c(Cl)c(Cl)c(C#N)c1Cl [Comparative Example 25, chlorothalonil] | ∘
5 | CCCCCCCCCC[N+](C)(C)CCCCCCCCCC.[Cl-] [Comparative Example 4, didecyldimethylammonium chloride] | x
6 | CCCC(Cn1cncn1)c1ccc(Cl)cc1Cl (centres unmarked) [Comparative Example 16, penconazole] | ∘
7 | CCCCC(O)(Cn1cncn1)c1ccc(Cl)cc1Cl (centres unmarked) [Comparative Example 1, hexaconazole] | ∘
8 | CCCCC(C#N)(Cn1cncn1)c1ccc(Cl)cc1 (centres unmarked) [Comparative Example 15, myclobutanil] | ∘
9 | CC(C)(C)C(O)(CCc1ccc(Cl)cc1)Cn1cncn1 (centres unmarked) [Comparative Example 6, tebuconazole] | ∘
10 | CC(C)(C)C(=O)C(Oc1ccc(Cl)cc1)n1cncn1 (centres unmarked) [Comparative Example 19, triadimefon] | ∘
11 | C[Si](Cn1cncn1)(c1ccc(F)cc1)c1ccc(F)cc1 [Comparative Example 10, flusilazole] | ∘
12 | CC1(C)CCC(Cc2ccc(Cl)cc2)C1(O)Cn1cncn1 (centres unmarked) [Comparative Example 14, metconazole] | ∘
13 | CC(C1CC1)C(O)(Cn1cncn1)c1ccc(Cl)cc1 (centres unmarked) [Comparative Example 5, cyproconazole] | ∘
14 | Clc1ccc(C2(Cn3cncn3)OCCO2)c(Cl)c1 [Comparative Example 7, azaconazole] | ∘
15 | C[Si](C)(C)CC(O)(Cn1cncn1)c1ccc(F)cc1F (centres unmarked) [Comparative Example 2, 2-(2,4-difluorophenyl)-1-(1H-1,2,4-triazole-1-yl)-3-(trimethylsilyl)propane-2-ol] | ∘
16 | CCCC1COC(Cn2cncn2)(c2ccc(Cl)cc2Cl)O1 (centres unmarked) [Comparative Example 17, propiconazole] | ∘
17 | Clc1ccc(CSC(Cn2cncn2)=Nc2ccc(Cl)cc2Cl)cc1 [Comparative Example 12, imibenconazole] | ∘
18 | benzalkonium chloride [Comparative Example 3] | x
19 | COC(=O)N(OC)c1ccccc1COc1ccn(-c2ccc(Cl)cc2)n1 [Comparative Example 22, pyraclostrobin] | ∘
20 | FC(F)C(F)(F)OCC(Cn1cncn1)c1ccc(Cl)cc1Cl (centres unmarked) [Comparative Example 18, tetraconazole] | ∘
21 | OC(Cn1cncn1)(c1ccc(F)cc1)c1ccccc1F (centres unmarked) [Comparative Example 11, flutriafol] | ∘
22 | CC(C)C1CCC(Cc2ccc(Cl)cc2)C1(O)Cn1cncn1 (centres unmarked) [Comparative Example 13, ipconazole] | ∘

Same assay, conditions: summary of Table 1

Row | Molecule | compatibility with phenol resin glue (in words)
23 | CCCCCCCCCC[N+](C)(C)CCCCCCCCCC.[Cl-] [Comparative Example 4, didecyldimethylammonium chloride] | harden the glue
24 | benzalkonium chloride [Comparative Example 3] | harden the glue

Tested on: Trametes versicolor
Assay: Test for antiseptic effects of preservative plywood (JIS K1571:2004)
Assay type: cell-based
Conditions: glue line method; summary of Tables 2 and 3
Method: 1000 g of urea melamine resin (PWP-60, manufactured by Oshika Corporation) was added to 180 g of wheat flour and fully kneaded to thereby obtain a kneaded product. 8 g of ammonium chloride was added as a hardening agent to the kneaded product, and a solution of each of the compounds of Example 1 and Comparative Example 1, 2 and 5 to 25 was further added thereto so that the final concentrations of the compound in the wood become 150, 100, 50 and 25 g/m^3 and kneaded. 18 g of the above kneaded product was applied onto each of the bonding plane of the three red lauan veneer sheets having an area of 30 x 30 cm and thickness of 0.85 mm/2.4 mm/0.85 mm. After bonding the three sheets to each other, the sheets were subjected to cold pressing at room temperature for 20 minutes and the thermal pressure of 120° C. (10 kgf/cm^2) was applied to the sheets for two minutes to obtain the target plywood. Each of the prepared plywood was processed into the size of 20×20×4.1 mm to serve as a test sample.
The samples of the plywood and LVL prepared in Preparation Examples 2 and 3 were evaluated by the test for antiseptic effects for the drug pressure treatment according to JIS K1571:2004. The weather resistance operation and the test method for the antiseptic effect were performed according to the above test method.

Row | Molecule | amount showing the antiseptic effect on Trametes versicolor
25 | CCCCC(O)(Cn1cncn1)c1ccc(Cl)cc1Cl (centres unmarked) [Comparative Example 1, hexaconazole] | ≥ 50 g/m^3
26 | C[Si](C)(C)CC(O)(Cn1cncn1)c1ccc(F)cc1F (centres unmarked) [Comparative Example 2, 2-(2,4-difluorophenyl)-1-(1H-1,2,4-triazole-1-yl)-3-(trimethylsilyl)propane-2-ol] | ≥ 100 g/m^3
